{"source": "patent US9315443B2", "about": "“Liquid cation exchanger” (priority 2011, dated 2016)", "key": {"E. coli BL21(DE3)": {"tested_on": "E. coli BL21(DE3)", "assay": "CFU determination, toxicity of liquid cation exchangers (Example 2)", "conditions": "for Number of CFUs after 22 or 24 h relative to t = 0 h: Escherichia coli", "text": "50% DEHPA or lauric acid (15%), in each case dissolved in LAME and with equimolar or 25 mol % loading with ALAME, as liquid cation exchanger, was contacted with an E. coli BL21 (DE3) strain and the influence of these two compounds on the strain's ability to form colonies, expressed in CFUs, was investigated."}, "E. coli W3110 [1]": {"tested_on": "E. coli W3110", "conditions": "Test 2, culture covered with equal volume of solvent", "experimental": "First a preculture comprising 20 ml of LB medium in a 100-ml baffle flask was inoculated with a cryoculture of the corresponding strain. The culture was cultured overnight at 37° C. with shaking at 200 rpm and was used on the next day, to inoculate an identical main culture to an OD of 0.2. The main cultures (each 30 mL of LB medium) were then incubated further under the same conditions. At an OD of 0.4 to 0.5, the main culture was covered in each case with equal volumes (30 ml) of solvent and was then incubated further.\nFor determination of the number of CFUs (colony-forming units), in the next tests 0.1-ml samples were taken and were diluted in sterile 0.9% NaCl solution. Suitable dilution steps were plated out on LB-agar plates. After incubation at 34° C. overnight, the colonies that had formed were counted and the CFUs were determined.\nIn this case two different concentrations of oleic acid were used and the volume was adjusted by adding the corresponding amount of LAME (lauric acid methyl ester).\nIn this case various amounts of an unsaturated fatty acid were compared with an unsaturated fatty acid with respect to their toxicity when used as liquid cation exchanger. […] The volumes of the various cation exchangers were compared with LAME. The number of CFUs was determined at the start, after 4.5 h and after 24 h."}, "[2]": {"tested_on": "ALA and ALAME producing E. coli strain BL21 (DE3) T1r pBT10 pACYC:Duet[TAcv]", "assay": "Oxygen transfer rate (OTR) during biotransformation with various ion exchangers (Example 4)", "format": "cell-based", "conditions": "150 mL lauric acid methyl ester with ion exchanger (10% w/w) added to the fermentation broth", "description": "The biotransformation of lauric acid methyl ester to aminolauric acid methyl ester was tested in the 8-fold parallel fermentation system of DasGip with various ion exchangers.\n1 L reactors were used for the fermentation. The pH probes were calibrated by means of a two-point calibration with standard solutions of pH 4.0 and pH 7.0. The reactors were filled with 300 mL water and were autoclaved for 20 min at 121° C., to ensure sterility. Then the pO2 probes were polarized overnight (for at least 6 h). On the next morning, the water was removed under the clean bench and was replaced with high-cell-density medium with 50 mg/L kanamycin and 34 mg/L chloramphenicol. Next the pO2 probes were calibrated with a single-point calibration (stirrer: 600 rpm/gassing: 10 sL/h air) and the feed, correcting-agent and induction-agent sections were cleaned by Clean-in-Place. For this, the hoses were rinsed with 70% ethanol, then with 1 M NaOH, then with sterile deionized water and finally were filled with the respective media.\nThe ALA and ALAME producing E. coli strain BL21 (DE3) T1r pBT10 pACYC:Duet[TAcv] was first grown from cryoculture in LB medium (25 mL in a 100 mL baffle flask) with 50 mg/L kanamycin and 34 mg/L chloramphenicol overnight at 37° C. and 200 rpm for approx. 18 h.\nThe 3 cultures were combined in a shaking flask and the optical density was determined as 7.2. For inoculating the reactors at an optical density of 0.1, in each case 4.2 mL was taken up in a 5 mL syringe and the reactors were inoculated by cannula through a septum.\nThe experiment carried out can be divided into two phases, growing, in which the cells are to reach a specified optical density, and the subsequent biotransformation, in which the expression of the genes necessary for the biotechnological processes of production of ALAME was induced. The pH values were adjusted on one side with ammonia (12.5%) to pH 6.8. During growing and biotransformation, the dissolved oxygen (DO) in the culture was controlled at 30% by means of the stirrer rotary speed and the gassing rate. Fermentation was carried out as fed batch, wherein feed start, 5 g/Lh glucose feed (500 g/L glucose with 1% MgSO4*7H2O and 2.2% NH4Cl), was triggered by a DO peak. […] Expression of transaminase was induced 2 h after feed start by the automatic addition of IPTG (1 mM). Induction of the alk-genes was effected by manual addition of DCPK (0.025% v/v) 10 h after feed start. The optical density of the culture broths was determined before the start of biotransformation.\nThe biotransformation phase started 14 h after feed start. For this, 150 mL of a mixture of lauric acid methyl ester and the respective ion exchanger (10% w/w) were added as batch to the fermentation broth. Di(2-ethylhexyl-)phosphoric acid (DEHPA), lauric acid, oleic acid, palmitic acid, palmitoleic acid, stearic acid and a mixture of free fatty acids from the saponification of globe thistle oil were used as ion exchangers. In order to make an amino group donor available for the transaminase, 10.7 mL of an alanine solution (125 g/L) was added to the fermentation broth simultaneously with addition of the organic phase. For sampling, 2 mL of fermentation broth was taken from the vessel and a portion of this was diluted 1/20 in an acetone-HCl mixture (c(HCl)=0.1 mol/L) and extracted. Samples were taken from all 8 reactors at 1.25 h, 3 h, 5 h, 20 h, 22 h and […] after the start of biotransformation. The oxygen transfer rate (OTR) and carbon transfer rate (CTR) were determined during the fermentation by exhaust gas analysis on the DasGip systems. The fermentation was ended 22 h after the start of biotransformation."}, "E. coli W3110 [3]": {"tested_on": "E. coli W3110", "assay": "CFU determination, lowering ALAME toxicity by contacting with a liquid cation exchanger (Example 3)", "format": "cell-based", "conditions": "ALAME 0.2% (w/v) dissolved in aqueous systems"}, "E. coli W3110 [4]": {"tested_on": "E. coli W3110", "assay": "CFU determination, toxicity of the solvent LAME (Example 1)", "experimental": "Before the determination of CFUs could be undertaken, an LB plate (10 g/L peptone from casein, 5 g/L yeast extract, 10 g/L NaCl) was streaked with E. coli BW3110 and incubated for 24 h. In the evening of the next day, a preculture of this previously streaked plate was inoculated. […] On the next day the preculture with an OD600 of 0.2 was inoculated in 200 mL of M9 medium (Na2HPO4 6.79 g/L; KH2PO4 3.0 g/L; NaCl 0.5 g/L; NH4Cl 1 g/L; 1 mL/L trace element solution, pH 7.4. Trace element solution: HCl 37% (=455.8 g/L) 36.50 g/L; MnCl2*7H2O 1.91 g/L; ZnSO4*7H2O 1.87 g/L; Na-EDTA*2H2O (Titriplex III) 0.84 g/L; H3BO3 0.30 g/L; Na2MoO4*2H2O 0.25 g/L; CaCl2*2H2O 4.70 g/L; FeSO4*7H2O 17.80 g/L; CuCl2*2H2O 0.15 g/L) with 3% glucose (w/v) and incubated for approx. 20 h. After incubation of the main culture, the cells were harvested, centrifuged at 5258 g and 4° C. for 10 min and, with an OD600 of 30, were resuspended in 10 mL of 50 mM Kpi buffer at pH 7.4 (or 25 mM HEPES buffer pH 7.4, when CFU determinations with ALAME were carried out). Both buffer solutions used contained 5% glucose (w/v). Then the bacterial suspension was transferred to the shaking flasks and the solutions of the respective substances were added. After mixing by swirling the flask, 100 μL of the suspension was withdrawn by pipette and put into 900 μL of prepared sterile saline. This corresponded to sampling at time point t0. The mixtures were then incubated at 250 rpm and 30° C. The CFUs were determined over a period of 22 h. First the samples were taken at time points t0, t3, t6 and t22. For some mixtures another sampling time point t1.5 was added and furthermore another additional dilution series was plated out, in order to minimize deviations.\nThe OD600 was 60. The cells were resuspended in 10 mL Kpi buffer and then mixed in the flask with 5 mL LAME 98% (w/w). One dilution step per assay was plated out."}}, "note": "“Also recorded” adds a separate entry of the source.", "data": [{"molecule": "CCCCC(CC)C(=O)O", "note": "(stereo not drawn) [2-Ethylhexanoic acid]", "values": [{"measurement": "Number of CFUs after 22 or 24 h relative to t = 0 h", "setting": "E. coli BL21(DE3)", "value": 0, "unit": "%"}, {"measurement": "Number of CFUs after 22 or 24 h relative to t = 0 h", "setting": "E. coli W3110 [1]", "value": 0, "unit": "%"}]}, {"molecule": "CCCCCC/C=C\\CCCCCCCC(=O)O", "note": "[palmitoleic acid]", "values": [{"measurement": "toxicity to cells concluded from the OTR", "setting": "[2]", "value": "even lower toxicity than the saturated fatty acids"}]}, {"molecule": "COC(=O)CCCCCCCCCCCN", "note": "[ALAME, 12-aminolauric acid methyl ester]", "values": [{"measurement": "action on bacteria", "setting": "E. coli W3110 [3]", "value": "bactericidal action"}]}, {"molecule": "CCCCCCCCCCCCCCCCCC(=O)O", "note": "[stearic acid]", "values": [{"measurement": "course of the OTR after addition of the ion exchanger", "setting": "[2]", "value": "much shallower"}, {"measurement": "toxicity to cells concluded from the OTR", "setting": "[2]", "value": "far less toxic"}]}, {"molecule": "CCCCC(CC)COP(=O)(O)OCC(CC)CCCC", "note": "(stereo not drawn) [DEHPA, di(2-ethylhexyl)phosphoric acid, reference compound]", "values": [{"measurement": "course of the OTR after addition of the ion exchanger", "setting": "[2]", "value": "drops to 0 within a short time"}, {"measurement": "toxicity to cells concluded from the OTR", "setting": "[2]", "value": "highly toxic to cells"}, {"measurement": "Number of CFUs after 22 or 24 h relative to t = 0 h", "setting": "E. coli BL21(DE3)", "value": 0, "unit": "%"}]}, {"molecule": "CCCCCCCCCCCCCCCC(=O)O", "note": "[palmitic acid]", "values": [{"measurement": "course of the OTR after addition of the ion exchanger", "setting": "[2]", "value": "much shallower"}, {"measurement": "toxicity to cells concluded from the OTR", "setting": "[2]", "value": "far less toxic"}]}, {"molecule": "CCCCCCCC/C=C\\CCCCCCCC(=O)O", "note": "[oleic acid]", "values": [{"measurement": "toxicity to cells concluded from the OTR", "setting": "[2]", "value": "even lower toxicity than the saturated fatty acids"}]}, {"molecule": "CCCCCCCCCCCC(=O)O", "note": "[Lauric acid]", "values": [{"measurement": "course of the OTR after addition of the ion exchanger", "setting": "[2]", "value": "intrusion of the OTR, but it is less pronounced"}, {"measurement": "toxicity to cells concluded from the OTR", "setting": "[2]", "value": "far less toxic than DEHPA"}, {"measurement": "Number of CFUs after 22 or 24 h relative to t = 0 h", "setting": "E. coli BL21(DE3)", "value": 1.2, "unit": "%"}]}, {"molecule": "CCCCCCCCCCCC(=O)OC", "note": "[LAME, lauric acid methyl ester]", "values": [{"measurement": "tolerance by the strains used", "setting": "E. coli BL21(DE3); preliminary tests", "value": "tolerated well"}, {"measurement": "percentage drop in the live cell count", "setting": "E. coli W3110 [4]; 5 mL LAME 98% (w/w) with cells in 10 mL Kpi buffer, OD600 60, after 22 h", "value": 30.3, "unit": "%"}, {"measurement": "number of CFU/mL", "setting": "E. coli W3110 [4]; 5 mL LAME 98% (w/w) with cells in 10 mL Kpi buffer, OD600 60, over a period of 6 h", "value": "remained constant"}, {"measurement": "toxicity of LAME with respect to biotechnologically relevant microorganisms", "setting": "E. coli W3110 [4]; compared with potassium phosphate buffer (Kpi) as negative control", "value": "does not have toxic action; also recorded: relatively low toxicity"}]}, {"molecule": "CC(C)CCCCCC(=O)O", "note": "[Isononanoic acid]", "values": [{"measurement": "Number of CFUs after 22 or 24 h relative to t = 0 h", "setting": "E. coli BL21(DE3)", "value": 0, "unit": "%"}, {"measurement": "Number of CFUs after 22 or 24 h relative to t = 0 h", "setting": "E. coli W3110 [1]", "value": 0, "unit": "%"}]}]}
